Reference: patent US20260083865A1, “PROSTATE SPECIFIC MEMBRANE ANTIGEN (PSMA) LIGANDS AND USE THEREOF” (priority 2022, published 2026)
Read-outs that look alike come from different tables or passages of the source. Numbered stars: 1 amine (or outer) side, 2 acyl side, 3 side chain; on linkers, the order of the positions; unused ones are H or OH. Bridge positions count the residues as written; N and C are the ends. Square brackets hold non-standard residues; d marks the D form. Peptide text beside a SMILES is read from it. * marks the point of attachment. DOTA = O=C(O)CN1CCN(CC(=O)O)CCN(CC(=O)*)CCN(CC(=O)O)CC1; Phe(3-CN) = N#Cc1cccc(C[C@H](N)C(=O)O)c1; Phe(4-Cl) = N[C@@H](Cc1ccc(Cl)cc1)C(=O)O; Phe(4-F) = N[C@@H](Cc1ccc(F)cc1)C(=O)O; Pro(4R-NH2) = N[C@H]1CN[C@H](C(=O)O)C1; Arg(Me) = CNC(=N)NCCC[C@H](N)C(=O)O; X1 = O=C(CC1CCN([*:1])CC1)[*:2]; Lys(Me) = CNCCCC[C@H](N)C(=O)O; Tle = CC(C)(C)[C@H](N)C(=O)O; Propanoyl(3-OH) = O=C(CCO)*; Nle = CCCC[C@H](N)C(=O)O; Aib = CC(C)(N)C(=O)O; CO = O=C([*:1])[*:2]; Ahx = NCCCCCC(=O)O; NHBu = CCCCN*

Legend:
[1] = biological target: T1, PSMA-expressing C4-2 cells (Homo sapiens, UniProt Q04609); test: FACS binding assay (competition with 50 nM PSM-0183); details: for IC50: read-out: pIC50 [C4-2] CAT (converted)
T1 construct: PSMA-expressing C4-2 cells (ATCC, Cat. No. CRL-3314) were cultured in RPMI-1640; host or cells: C4-2 cells
T1 sequence (Q04609 whole entry): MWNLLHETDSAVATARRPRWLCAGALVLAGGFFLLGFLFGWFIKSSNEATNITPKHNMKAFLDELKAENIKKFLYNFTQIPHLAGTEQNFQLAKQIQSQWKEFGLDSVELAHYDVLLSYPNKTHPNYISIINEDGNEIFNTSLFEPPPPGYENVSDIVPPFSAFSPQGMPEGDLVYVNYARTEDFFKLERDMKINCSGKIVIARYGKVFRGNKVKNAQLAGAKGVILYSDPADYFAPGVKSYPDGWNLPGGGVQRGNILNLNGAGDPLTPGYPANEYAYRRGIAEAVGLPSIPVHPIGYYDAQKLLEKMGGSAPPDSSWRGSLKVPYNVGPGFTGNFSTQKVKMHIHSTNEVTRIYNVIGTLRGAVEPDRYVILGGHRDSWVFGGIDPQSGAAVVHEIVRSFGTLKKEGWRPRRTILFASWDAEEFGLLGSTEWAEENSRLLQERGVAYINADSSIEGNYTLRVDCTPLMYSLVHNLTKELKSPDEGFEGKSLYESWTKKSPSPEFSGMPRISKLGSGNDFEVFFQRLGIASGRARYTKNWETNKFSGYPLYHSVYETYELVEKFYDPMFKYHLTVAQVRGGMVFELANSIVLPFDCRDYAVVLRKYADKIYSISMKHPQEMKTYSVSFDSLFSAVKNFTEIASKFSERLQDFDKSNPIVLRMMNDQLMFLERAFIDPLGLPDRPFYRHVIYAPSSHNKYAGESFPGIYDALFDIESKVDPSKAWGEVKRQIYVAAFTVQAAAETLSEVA
Method in brief: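 C4-2 cells were incubated 1 h at 4 °C with 50 nM AF488-labelled peptide PSM-0183 plus increasing test compound concentrations, then washed twice in ice-cold buffer. Median fluorescence in the AF488 channel was read by flow cytometry. IC50/pIC50 was derived by 4PL fitting of MFI versus concentration.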

[2] = biological target: T2, Fc-fusion protein of human PSMA (hPSMA-Fc) (Homo sapiens, UniProt Q04609); test: Surface plasmon resonance assay (Biacore T200, single cycle kinetic); type: binding; details: for Kd: read-out: pKD CAT (converted)
T2 construct: purchased Acro Biosystems PSA-H5264
T2 sequence (Q04609 44-750 limits assumed): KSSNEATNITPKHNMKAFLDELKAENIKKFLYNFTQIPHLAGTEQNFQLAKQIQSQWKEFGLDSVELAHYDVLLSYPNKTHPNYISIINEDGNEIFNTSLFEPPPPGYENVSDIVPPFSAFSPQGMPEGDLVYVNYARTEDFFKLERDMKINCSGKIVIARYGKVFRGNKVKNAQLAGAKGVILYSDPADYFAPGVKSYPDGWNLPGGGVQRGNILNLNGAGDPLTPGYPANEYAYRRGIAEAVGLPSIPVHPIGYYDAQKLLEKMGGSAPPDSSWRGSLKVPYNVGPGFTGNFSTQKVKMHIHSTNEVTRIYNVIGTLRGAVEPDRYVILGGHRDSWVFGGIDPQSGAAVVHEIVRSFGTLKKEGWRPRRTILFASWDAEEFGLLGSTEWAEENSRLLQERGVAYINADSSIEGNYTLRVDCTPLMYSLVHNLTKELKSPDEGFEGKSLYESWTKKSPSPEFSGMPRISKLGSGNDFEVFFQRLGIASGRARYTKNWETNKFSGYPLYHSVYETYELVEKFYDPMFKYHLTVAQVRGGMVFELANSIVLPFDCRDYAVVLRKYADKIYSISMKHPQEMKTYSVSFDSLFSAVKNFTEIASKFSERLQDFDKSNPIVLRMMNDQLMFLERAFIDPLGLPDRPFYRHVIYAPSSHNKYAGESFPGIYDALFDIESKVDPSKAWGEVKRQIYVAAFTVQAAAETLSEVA
Method in brief: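 hPSMA-Fc was captured (~1000 RU) on an Fc-binding-peptide CM5 chip, and compounds were run in single cycle kinetic mode at 25° C in HBST with 0.1% DMSO. Double-blank-corrected sensorgrams were fitted to a 1:1 Langmuir model to give KD, reported as pKD.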

[3] = pIC50 category of FACS binding, C4-2 cells
[4] = pKD category for PSMA SPR activity assay, hPSMA-Fc, 25° C.

IC50 [1, 3] [µM]	Kd [2, 4] [µM]	Molecule	also measured
< 0.2	< 0.0126	C[C@@H](O)[C@H](NC(=O)[C@@H](NC(=O)[C@@H]1CSSC[C@H](NC(=O)[C@H](Cc2ccccc2)NC(=O)C(C)(C)NC(=O)CCCCCNC(=O)CN2CCN(CC(=O)O)CCN(CC(=O)O)CCN(CC(=O)O)CC2)C(=O)N[C@@H](CCCCN)C(=O)N[C@@H](CCCNC(=N)N)C(=O)NC(C)(C)C(=O)N[C@@H](CC(N)=O)C(=O)N1)C(C)(C)C)C(N)=O [PSM-0513, DOTA-Ahx-Aib-Phe-[Cys-Lys-Arg-Aib-Asn-Cys]-Tle-Thr-NH2] ({DOTA-Ahx}-[Aib]FCKR[Aib]NC[Tle]T-NH2; disulfide 3-8)	
< 0.2	< 0.0126	C[C@@H](O)[C@H](NC(=O)[C@@H](NC(=O)[C@@H]1CSSC[C@H](NC(=O)[C@H](Cc2ccc(Cl)cc2)NC(=O)C(C)(C)NC(=O)CCO)C(=O)N[C@@H](CCCCN)C(=O)N[C@@H](CCCNC(=N)N)C(=O)NC(C)(C)C(=O)N[C@@H](CC(N)=O)C(=O)N1)C(C)(C)C)C(=O)N1CCC(CC(=O)N[C@H](CCCCNC(=O)CN2CCN(CC(=O)O)CCN(CC(=O)O)CCN(CC(=O)O)CC2)C(N)=O)CC1 [PSM-0509, HPA-Aib-Pcf-[Cys-Lys-Arg-Aib-Asn-Cys]-Tle-Thr-Cmp-lys(DOTA)-NH2] ({Propanoyl(3-OH)}-[Aib][Phe(4-Cl)]CKR[Aib]NC[Tle]T[X1][dK](DOTA)-NH2; disulfide 3-8)	

More lines, now with the values behind:

Molecule	IC50 [1, 3] [µM]	Kd [2, 4] [µM]	also measured
CC(=O)N[C@H](C(=O)NC(C)(C)C(=O)N[C@@H](Cc1ccc(F)cc1)C(=O)N[C@H]1CSSC[C@@H](C(=O)N[C@H](C(=O)N[C@H](C(N)=O)[C@@H](C)O)C(C)(C)C)NC(=O)[C@H](CC(N)=O)NC(=O)C(C)(C)NC(=O)[C@H](CCCNC(=N)N)NC(=O)[C@H](CCCCN)NC1=O)[C@@H](C)O [PSM-0294, Ac-Thr-Aib-Pff-[Cys-Lys-Arg-Aib-Asn-Cys]-Tle-Thr-NH2] (Ac-T[Aib][Phe(4-F)]CKR[Aib]NC[Tle]T-NH2; disulfide 4-9)			IC50 ([1]; FACS binding, PSMA-expressing C4-2 cells, pIC50 category): < 0.2 µM; Kd ([2]; PSMA SPR assay, hPSMA-Fc, 25° C., pKD category): < 0.0126 µM
CCCC[C@H](NC(=O)[C@@H]1CSSC[C@H](NC(=O)[C@H](Cc2ccccc2)NC(=O)[C@H](C)NC(=O)[C@@H](NC(C)=O)[C@@H](C)O)C(=O)N[C@@H](CCCCN)C(=O)N[C@@H](CCCNC(=N)N)C(=O)N[C@@H](C)C(=O)N[C@@H](CC(N)=O)C(=O)N1)C(=O)N[C@H](C(=O)N[C@@H](C)C(N)=O)[C@@H](C)O [PSM-0562, Ac-Thr-Als-Phe-[Cys-Lys-Arg-Ala-Asn-Cys]-Nle-Thr-Ala-NH2] (Ac-TAFCKRANC[Nle]TA-NH2; disulfide 4-9)			IC50 ([1]; FACS binding, C4-2 cells, category): 0.2 to 1.26 µM; Kd ([2]; PSMA SPR assay, category): 0.126 to 0.501 µM
CC(=O)N[C@H](C(=O)NC(C)(C)C(=O)N[C@@H](Cc1ccccc1)C(=O)N[C@H]1CSSC[C@@H](C(=O)N[C@H](C(=O)N[C@H](C(=O)N[C@@H](CC(=O)O)C(N)=O)[C@@H](C)O)C(C)(C)C)NC(=O)[C@H](CC(N)=O)NC(=O)[C@H](C)NC(=O)[C@H](CCCNC(=N)N)NC(=O)[C@@H]2C[C@@H](N)CN2C1=O)[C@@H](C)O [PSM-0422, Ac-Thr-Aib-Phe-[Cys-Tap-Arg-Ala-Asn-Cys]-Tle-Thr-Asp-NH2] (Ac-T[Aib]FC[Pro(4R-NH2)]RANC[Tle]TD-NH2; disulfide 4-9)	< 0.2	0.126 to 0.501	
InDOTA-Cmp-Thr-Aib-Phe-[Cys-Lys-Arg-Aib-Asn-Cys]-Tle-Thr-NH2 [PSM-0195]			pIC50 [C4-2] CAT ([1]; FACS binding, C4-2 cells, competition with 50 nM PSM-0183, category): A (pIC50 values >6.7); pKD CAT ([2]; SPR, hPSMA-Fc, single cycle kinetic, 25° C., category): A (pKD values >7.9)
CNCCCC[C@@H]1NC(=O)[C@@H](NC(=O)[C@H](Cc2cccc(C#N)c2)NC(=O)C(C)(C)NC(=O)[C@@H](NC(=O)CC2CCN(C(=O)CN3CCN(CC(=O)O)CCN(CC(=O)O)CCN(CC(=O)O)CC3)CC2)[C@@H](C)O)CSSC[C@@H](C(=O)N[C@H](C(N)=O)C(C)(C)C)NC(=O)[C@H](CC(N)=O)NC(=O)C(C)(C)NC(=O)[C@H](CCCNC(=N)NC)NC1=O [PSM-0459, DOTA-Cmp-Thr-Aib-Mnf-[Cys-Lys(Me)-Arg(Me)-Aib-Asn-Cys]-Tle-NH2] ({DOTA}-[X1]T[Aib][Phe(3-CN)]C[Lys(Me)][Arg(Me)][Aib]NC[Tle]-NH2; disulfide 5-10)	0.2 to 1.26	0.0126 to 0.126	
CCCCNC(=O)N[C@H](C(=O)NC(C)(C)C(=O)N[C@@H](Cc1ccccc1)C(=O)N[C@H]1CSSC[C@@H](C(=O)N[C@H](C(=O)N[C@H](C(=O)N2CCC(CC(=O)N[C@H](CCCCNC(=O)CN3CCN(CC(=O)O)CCN(CC(=O)O)CCN(CC(=O)O)CC3)C(N)=O)CC2)[C@@H](C)O)C(C)(C)C)NC(=O)[C@H](CC(N)=O)NC(=O)C(C)(C)NC(=O)[C@H](CCCNC(=N)N)NC(=O)[C@H](CCCCN)NC1=O)[C@@H](C)O [PSM-0484, nBuCAyl-Thr-Aib-Phe-[Cys-Lys-Arg-Aib-Asn-Cys]-Tle-Thr-Cmp-lys(DOTA)-NH2] ({NHBu-CO}-T[Aib]FCKR[Aib]NC[Tle]T[X1][dK](DOTA)-NH2; disulfide 4-9)	< 0.2	< 0.0126	
